Reference: patent US10519101B2, “Trans-cyclooctene amino and hydroxy acids and their use in multiple cycloaddition reactions for labeling of molecules” (EUROPEAN MOLECULAR BIOLOGY LABORATORY, priority 2014, dated 2019)
“Also recorded” adds a separate entry of the source.

Columns and labels:
[1] = 1H-NMR assay of orthogonality of seSPIEDAC and SPIEDAC reactions; assay type: physicochemical; conditions: 5 mm dienophile, 10 mm tetrazine, DMSO-d6, 10 min at room temperature
Method: Stock solutions of the dienophiles in DMSO-d6 with a final concentration of 10 mm were prepared. A 20 mm stock of the formic acid salt of (4-(6-methyl-1,2,4,5-tetrazine-3-yl)phenyl)methanamine (termed as methyl tetrazine or Me-Tet-NH2) in DMSO-d6 was prepared, too. As control experiment, either the dienophile or the diene (Me-Tet-NH2) were mixed with DMSO-d6 1:1 (v/v; 760 μl total volume) to yield a final concentration of 5 mm or 10 mm, respectively, in the NMR tube. To confirm whether a dienophile reacts with the diene (Me-Tet-NH2) or not, the corresponding stocks were mixed 1:1 (v/v; 760 μl total volume) to yield a final concentration of 5 mm of the dienophile and 10 mm of the diene in the NMR tube. The samples were incubated for 10 min at room temperature before analyzed by ^1H-NMR.

tRNA^Pyl/PylRS^AF = target: T1, tRNA^Pyl/PylRS^AF (Methanosarcina mazei, UniProt Q8PWY1, Y306A/Y384F); experiment: Recombinant expression of GFP^TAG→UAA in E. coli (amber suppression, UAA incorporation); assay type: cell-based; conditions: for protein yields / incorporation rate compared with compound 2: E. coli, 1 mM UAA, GFP^Y39TAG; for incorporation rate compared with compound 2: FIG. 12; for expression yield of GFP^TAG→UAA (Coomassie SDS-PAGE): compared with TCO
T1 construct: expressed in transfected cells; host or cells: E. coli Top10 (Invitrogen), co-transformed with pEvolv tRNA^Pyl/PylRS^AF and pBAD GFP^Y39TAG

[2] = Stability of UAAs by 1H-NMR without thiols; assay type: physicochemical; conditions: dPBS (pH 7.4)/dioxane-d8 (v/v 1:1); rt, 37° C., 60° C.; 72 h
Method: Therefore, 0.1 M NaOH (for E. coli cells) and DMSO (for mammalian cells) are well suited solvents for the preparation of stock solutions for biological experiments. However, stock solutions were stored at −20° C. and thaw 30 min before usage.
Taking the properties of the purified compounds into account, these conditions resemble the nearest physiological conditions possible, as they prevail in biological experiments (living cells, aqueous buffered solutions of proteins) ((a) B. R. Varga, M. Kallay, K. Hegyi, S. Beni, P. Kele, Chemistry 2012, 18, 822-828; b) R. van Geel, G. J. Pruijn, F. L. van Delft, W. C. Boelens, Bioconjugate chemistry 2012, 23, 392-398).

[3] = Stability of trans-cyclooctenyl isomers against thiols by 1H-NMR; assay type: physicochemical; conditions: two equivalents of cysteamine, 60° C., ten days (240 h)
Method: In order to test for stability against thiols, UAAs 2-4 were separately combined with two equivalents of cysteamine hydrochloride in dPBS/dioxane-d8 (v/v 1:1), NMR tubes were tightly sealed, and incubated at rt, 37° C., or 60° C. ^1H-NMR spectra were measured after 24 h of incubation and later time points (in case of 3). […] For all three trans-cyclooctene-containing UAAs, conversion of the trans-cyclooctenyl-form to its corresponding cis-cyclooctenyl-form was observed (FIG. 8b). […] These numbers were obtained by comparing the integrals for the double bond protons and the —CHO— protons (if possible/applicable) before and after the heat treatment as it was done before by others for similar compounds ((a) B. R. Varga, M. Kallay, K. Hegyi, S. Beni, P. Kele, Chemistry 2012, 18, 822-828; b) R. van Geel, G. J. Pruijn, F. L. van Delft, W. C. Boelens, Bioconjugate chemistry 2012, 23, 392-398; J. Yang, J. Seckute, C. M. Cole, N. K. Devaraj, Angew Chem Int Ed Engl 2012, 51, 7476-7479). Observations at different temperatures were consistent with the expectation that the higher the temperature, the faster/easier the isomerization. Isomerization to the cis-form continued in samples kept at rt or 37° C. after 24 h (data not shown).

[4] = Long time stability of the covalent bond in labeled proteins (FRET); conditions: labeled with Me-Tet-Cy3, excess filtered off, 4 h to 76 h
Method: To proof the stability of the formed covalent bonds between TCO* and the dye-Tet in a SPIEDAC reaction, long time FRET experiments were carried out. Basically, the same FRET assay as described above was used to test whether the fluorophores stays covalently attached to the protein or not over a period of 36 h. 200 nM GFP^TAG→3 were separately reacted with 2 μM Me-Tet-Cy3 at room temperature (rt) and the ratio between D and A fluorophore was followed over time.
In another experiment, Ni-NTA-purified GFP^TAG→UAA (1-4) was labeled with Me-Tet-Cy3 (2 h, 37° C.). Excess Me-Tet-Cy3 was filtered off (˜2 h). 200 nM labeled GFP^TAG>UAA+Cy3 (with 1-4) were followed over time by FRET as described above. Note that the first data point was taken approximately 4 h after adding the tetrazine to the proteins. No significant changes between the FRET ratio measured after 4 h and after 76 h were observed (FIG. 7).

[5] = FRET assay of labeling kinetics of GFP^TAG→UAA with Me-Tet-Cy3; conditions: tested experimental conditions of the FRET assay; listed as SCO
Method: For observation of labeling kinetics, GFP^TAG→UAA was expressed with 1-5 (for structures of UAAs see FIG. 1a). E. coli lysate was adjusted to a final GFP concentration of 200 nM based on absorbance spectra. H-Tet-Atto532 7 or Me-Tet-Cy3 8 (see FIG. 4), respectively, were added to a final concentration of 2 μM and fluorescence spectra (excitation at λ=450 nm, emission λ=470-650 nm) were recorded at different time points. The experiments were carried out in a total volume of 2 ml and continuous stirring. 1 mM stocks of the dyes in DMSO were used. Successful labeling of GFP^TAG→UAA was monitored by Foerster resonance energy transfer (FRET) from the GFP-chromophore (serving as a Donor, D) to the synthetic fluorophore (Acceptor, A) when covalently attached. In the individual spectra this is visible by a decrease of GFP-fluorescence (around λ=503-506 nm) and a simultaneous increase of Atto532- (λ=551 nm) or Cy3-fluorescence (λ=563 nm), respectively, over time (shown exemplarily for GFP^TAG→3 (TCO*) in the left panel of FIG. 5). […] Note that time point “0 min” is defined as the time point about 15 s after pipetting the dye to the protein solution. […]

HEK293T cells = experiment: Pulse-chase dual-color labeling of insulin receptor IR^TAG; assay type: cell-based
Method: For insulin receptor experiments, HEK293T cells were maintained in Dulbecco's Modified Eagle's Medium—DMEM (high glucose—4.5 g/l) supplemented with 10% FBS (Sigma), 1% L-glutamine (Invitrogen, Palo Alto, USA) and 1% Pen-Strep (Invitrogen) in a 5% CO2 atmosphere at 37° C. Cells were passaged every 2-3 days up to 15-20 passages. For microscopy, cells were seeded on 4-well chambered Lab-Tek #1.0 borosilicate coverglass (ThermoFisher, Ma USA) 15-24 h prior to transfections. Transfections were performed with JetPrime reagent (PegLab, Erlangen, Germany) according to the manufacturer's recommendations. In short, for double-transfections with IR and tRNA^Pyl/PylRS^AF vectors we used plasmids in 1:1 ratio keeping total amount of DNA at 1 μg. UAAs were added after the transfections in two pulses (see FIG. 2a). UAAs were dissolved in DMSO (250 mM stock of PrK; 100 mM stock of TCO*) or 20% formic-acid DMSO (500 mM stock of BCN; 250 mM stock of SCO). Each UAA was used at a final concentration of 250 μM. After the 2nd UAA pulse, cells were rinsed with fresh medium and kept overnight in DMEM.
In the morning following transfections, medium was exchanged to serum-free high glucose DMEM […], in which all the subsequent washing and labeling steps were also performed. The transfected cells were then labeled according to the following protocols. […]

T1 sequence (Q8PWY1 whole entry Y306A/Y384F): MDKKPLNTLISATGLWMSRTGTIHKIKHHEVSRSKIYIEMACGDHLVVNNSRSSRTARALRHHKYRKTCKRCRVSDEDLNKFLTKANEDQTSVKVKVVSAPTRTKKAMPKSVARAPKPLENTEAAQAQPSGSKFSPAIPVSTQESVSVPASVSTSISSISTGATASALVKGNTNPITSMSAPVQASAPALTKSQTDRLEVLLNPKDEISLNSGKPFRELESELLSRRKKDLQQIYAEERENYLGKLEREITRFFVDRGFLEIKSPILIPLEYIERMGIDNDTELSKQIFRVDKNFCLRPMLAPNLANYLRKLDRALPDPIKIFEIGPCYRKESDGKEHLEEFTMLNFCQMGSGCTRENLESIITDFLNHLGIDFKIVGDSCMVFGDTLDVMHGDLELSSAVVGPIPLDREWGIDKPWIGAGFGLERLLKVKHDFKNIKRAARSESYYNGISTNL

Row | Compound | protein yields (tRNA^Pyl/PylRS^AF) [mg/L] | incorporation rate compared with compound 2 (tRNA^Pyl/PylRS^AF) | expression yield of GFP^TAG→UAA (Coomassie SDS-PAGE) (tRNA^Pyl/PylRS^AF) | stability by 1H-NMR [2] | other results
1 | OC1CC2C=CC1C2 (centres unmarked) [5-norbornene-2-ol] |  |  |  |  | reaction with tetrazine Me-Tet-NH2 by 1H-NMR [1]: No new signals were detected
2 | N[C@@H](CCCCNC(=O)OC1/C=C/CCCCC1)C(=O)O (stereo partly drawn) [Compound 3, N-ε-((trans-Cyclooct-2-en-1-yloxy)carbonyl)-L-lysine] | 0.4 | more readily incorporated than compound 2 by about a factor of two | higher expression yields than the TCO | remained un-changed | trans-form left after ten days [3]: more 3 (TCO*) was left in its trans-form than for 2 (TCO) and 4 (TCO^#) after 24 h; stability of covalent bond, FRET ratio over time [4]: consistent FRET values over time
3 | N[C@@H](CCCCNC(=O)OC1CC/C=C/CCC1)C(=O)O (stereo partly drawn) [Compound 2, N-ε-((trans-Cyclooct-4-en-1-yloxy)carbonyl)-L-lysine] |  |  |  | remained un-changed | 
4 | N[C@@H](CCCCNC(=O)OC1/C=C/CCCCC1)C(=O)O (stereo in doubt) [Compound 3a, N-ε-((trans-Cyclooct-2-en-1-yloxy)carbonyl)-L-lysine] | 0.4 | more readily incorporated than compound 2 by about a factor of two | higher expression yields than the TCO |  | 
5 | N[C@@H](CCCCNC(=O)OC1/C=C/CCCCC1)C(=O)O (stereo in doubt) [Compound 3b, N-ε-((trans-Cyclooct-2-en-1-yloxy)carbonyl)-L-lysine] | 0.4 | more readily incorporated than compound 2 by about a factor of two | higher expression yields than the TCO |  | 
6 | N[C@@H](CCCCNC(=O)OC1C/C=C/CCCC1)C(=O)O (stereo partly drawn) [Compound 4, N-ε-((trans-Cyclooct-3-en-1-yloxy)carbonyl)-L-lysine] |  |  | higher expression yields than the TCO | remained un-changed | 
7 | N[C@@H](CCCCNC(=O)OC1C#CCCCCC1)C(=O)O (stereo partly drawn) [Compound 5, N-ε-((Cyclooct-2-yn-1-yloxy)carbonyl)-L-lysine] |  |  |  |  | Reactivity with Me-Tet (in words) [5]: basically no detectable reactivity; also recorded: no substantial reactivity with Me-Tet; labeling of IR (confocal) (HEK293T cells; TCO* and SCO, Me-Tet-Cy5 then H-Tet-Atto532, 10 min): bright labeling of the IR in the plasma membrane for both channels
8 | N[C@@H](CCCCNC(=O)OCC1C2CCC#CCCC21)C(=O)O (some centres unmarked) [Compound 1] |  |  |  |  | stability of covalent bond, FRET ratio over time [4]: consistent FRET values over time; labeling of IR (confocal) (HEK293T cells; TCO* pulse, BCN chase, Me-Tet-Cy5, quencher, H-Tet-Atto532): no signal in the Atto532 channel was observed
